Source: PMC6117563, “A structurally derived model of subunit‐dependent NMDA receptor function” (The Journal of Physiology, 2018)

Key:
[1] = system: diheteromeric GluN1/GluN2BC2 receptors; parameters: method as in Hatton & Paoletti, 2005; Hansen et al. 2014; conditions: 3 μM ifenprodil; ref Hatton & Paoletti, 2005; Hansen et al. 2014; cited from earlier work
[2] = system: GluN2AC1‐P552R/GluN2BC2‐P553R triheteromeric receptors; test: Whole cell current recordings, ifenprodil block of peak current in transfected HEK cells; assay type: cell-based, rat; conditions: 3 μM ifenprodil; n = 9
Description: (§1) Cells were transfected using FuGENE 6 (Roche Diagnostics, Basel, Switzerland) with cDNA encoding green fluorescent protein (GFP), wild type GluN1‐1a (GenBank accession numbers U11418 and U08261; hereafter GluN1), and GluN2A (D13211) and GluN2B (U11419) at a ratio of 5:1:1 (GFP:GluN1:GluN2); total cDNA was 0.2 mg ml^−1. All rat NMDA receptor subunit cDNAs were provided by Drs Heinemann (Salk Institute) and Nakanishi (Kyoto University). After transfection, the HEK cells were incubated for 12–24 h (timed to optimize observation of patches with a single active channel) in media supplemented with D,L‐2‐amino‐5‐phosphonovalerate (DL‐AP‐5) and 7‐chlorokynurenic acid (both at 200 μM) prior to patch clamp recordings.
(§2) All GluN2 cDNAs used for whole cell current recordings encoded a fusion protein containing the GluN2A C‐terminal domain fused to coiled‐coil C1 and C2 peptide tags followed by an endoplasmic reticulum (ER) retention signal fused in frame to the C‐terminal. This allowed control of the stoichiometry of GluN2 in surface receptors, as previously described (Hansen et al. 2014). The vector containing GluN1 also independently expressed GFP and was provided by Dr Kasper Hansen (University of Montana). […]

[3] = target: T1, GluN1/GluN2AC1/GluN2BC2 triheteromeric receptors (Rattus norvegicus, UniProt P35439+Q00959+Q00960, A876H/F846L/G856D/H848F/K857R/M851T/M860L/Q845K/V861L); test: Whole cell current recordings, ifenprodil block of peak current response to glutamate plus glycine in transfected HEK cells; assay type: cell-based; conditions: 3 μM ifenprodil
T1 construct: expressed in transfected cells; host or cells: HEK 293 cells
Description: as §1, §2

[4] = target: T2, GluN2AC1‐P552R/GluN2BC2 triheteromeric receptors (Rattus norvegicus, UniProt P35439+Q00959+Q00960, A876H/F846L/G856D/H848F/K857R/M851T/M860L/Q845K/V861L); test: Whole cell current recordings, ifenprodil block of peak current in transfected HEK cells; assay type: cell-based; conditions: 3 μM ifenprodil; n = 9
T2 construct: expressed in transfected cells; host or cells: HEK 293 cells
Description: as §1, §2

[5] = target: T1, GluN1/GluN2AC1/GluN2BC2 triheteromeric receptors; parameters: method as in Hatton & Paoletti, 2005; Hansen et al. 2014; conditions: 3 μM ifenprodil; ref Hatton & Paoletti, 2005; Hansen et al. 2014; cited from earlier work
GluN1/GluN2A receptors = target: T3, GluN1/GluN2A receptors (Rattus norvegicus, UniProt Q00959); test: Least squares fitting of kinetic model to macroscopic currents from excised outside‐out patches (1 mM or 3 μM glutamate for 1 s); assay type: cell-based; conditions: macroscopic fit
T3 construct: expressed in transfected cells; host or cells: HEK 293 cells
Description: as §1

[6] = model of Fig. A2 (opening only after all four pre‐gating steps)
[7] = model of Figs 5 and 6, saturating glycine (100 μM), pH 8.0

T3 sequence (Q00959 23-1464, other chains not shown): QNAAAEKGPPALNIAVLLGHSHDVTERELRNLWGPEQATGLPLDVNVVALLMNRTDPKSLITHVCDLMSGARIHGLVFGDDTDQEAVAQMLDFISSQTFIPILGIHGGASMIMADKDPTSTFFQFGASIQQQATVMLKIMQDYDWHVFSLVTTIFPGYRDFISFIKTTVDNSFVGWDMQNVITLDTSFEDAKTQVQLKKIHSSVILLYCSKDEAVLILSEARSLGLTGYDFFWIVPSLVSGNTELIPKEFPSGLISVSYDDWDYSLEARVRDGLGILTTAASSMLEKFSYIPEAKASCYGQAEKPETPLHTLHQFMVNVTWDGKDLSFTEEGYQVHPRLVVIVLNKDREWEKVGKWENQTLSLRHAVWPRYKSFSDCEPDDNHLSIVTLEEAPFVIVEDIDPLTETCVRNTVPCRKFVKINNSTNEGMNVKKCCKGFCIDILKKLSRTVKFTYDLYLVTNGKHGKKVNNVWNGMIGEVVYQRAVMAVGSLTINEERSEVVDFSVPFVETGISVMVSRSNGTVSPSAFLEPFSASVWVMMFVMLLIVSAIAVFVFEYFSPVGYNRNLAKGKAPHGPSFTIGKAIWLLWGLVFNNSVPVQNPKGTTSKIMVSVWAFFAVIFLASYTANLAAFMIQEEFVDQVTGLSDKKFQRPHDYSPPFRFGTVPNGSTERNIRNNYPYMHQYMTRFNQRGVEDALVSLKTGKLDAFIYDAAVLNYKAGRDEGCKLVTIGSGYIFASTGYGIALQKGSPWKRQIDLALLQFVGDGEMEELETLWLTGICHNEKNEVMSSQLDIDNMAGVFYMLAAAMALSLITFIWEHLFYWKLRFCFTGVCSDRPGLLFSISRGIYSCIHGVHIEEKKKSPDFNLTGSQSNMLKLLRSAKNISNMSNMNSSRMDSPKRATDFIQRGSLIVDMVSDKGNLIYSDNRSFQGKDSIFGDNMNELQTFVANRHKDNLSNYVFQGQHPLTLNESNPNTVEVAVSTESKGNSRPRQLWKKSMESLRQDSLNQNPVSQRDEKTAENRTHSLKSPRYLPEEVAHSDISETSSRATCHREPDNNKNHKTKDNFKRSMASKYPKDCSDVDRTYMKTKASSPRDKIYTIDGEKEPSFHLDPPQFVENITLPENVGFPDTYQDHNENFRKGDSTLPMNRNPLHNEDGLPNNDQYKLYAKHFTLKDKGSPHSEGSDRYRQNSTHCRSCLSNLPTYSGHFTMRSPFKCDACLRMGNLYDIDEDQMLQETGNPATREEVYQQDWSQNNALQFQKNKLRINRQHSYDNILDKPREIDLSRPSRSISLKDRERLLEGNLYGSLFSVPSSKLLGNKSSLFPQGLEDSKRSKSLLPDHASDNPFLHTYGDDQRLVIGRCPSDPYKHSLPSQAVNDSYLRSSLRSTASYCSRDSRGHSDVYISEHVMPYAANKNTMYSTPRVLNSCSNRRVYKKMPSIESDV
T1 sequence (Q00960+Q00959 fused with the stated changes, other chains not shown): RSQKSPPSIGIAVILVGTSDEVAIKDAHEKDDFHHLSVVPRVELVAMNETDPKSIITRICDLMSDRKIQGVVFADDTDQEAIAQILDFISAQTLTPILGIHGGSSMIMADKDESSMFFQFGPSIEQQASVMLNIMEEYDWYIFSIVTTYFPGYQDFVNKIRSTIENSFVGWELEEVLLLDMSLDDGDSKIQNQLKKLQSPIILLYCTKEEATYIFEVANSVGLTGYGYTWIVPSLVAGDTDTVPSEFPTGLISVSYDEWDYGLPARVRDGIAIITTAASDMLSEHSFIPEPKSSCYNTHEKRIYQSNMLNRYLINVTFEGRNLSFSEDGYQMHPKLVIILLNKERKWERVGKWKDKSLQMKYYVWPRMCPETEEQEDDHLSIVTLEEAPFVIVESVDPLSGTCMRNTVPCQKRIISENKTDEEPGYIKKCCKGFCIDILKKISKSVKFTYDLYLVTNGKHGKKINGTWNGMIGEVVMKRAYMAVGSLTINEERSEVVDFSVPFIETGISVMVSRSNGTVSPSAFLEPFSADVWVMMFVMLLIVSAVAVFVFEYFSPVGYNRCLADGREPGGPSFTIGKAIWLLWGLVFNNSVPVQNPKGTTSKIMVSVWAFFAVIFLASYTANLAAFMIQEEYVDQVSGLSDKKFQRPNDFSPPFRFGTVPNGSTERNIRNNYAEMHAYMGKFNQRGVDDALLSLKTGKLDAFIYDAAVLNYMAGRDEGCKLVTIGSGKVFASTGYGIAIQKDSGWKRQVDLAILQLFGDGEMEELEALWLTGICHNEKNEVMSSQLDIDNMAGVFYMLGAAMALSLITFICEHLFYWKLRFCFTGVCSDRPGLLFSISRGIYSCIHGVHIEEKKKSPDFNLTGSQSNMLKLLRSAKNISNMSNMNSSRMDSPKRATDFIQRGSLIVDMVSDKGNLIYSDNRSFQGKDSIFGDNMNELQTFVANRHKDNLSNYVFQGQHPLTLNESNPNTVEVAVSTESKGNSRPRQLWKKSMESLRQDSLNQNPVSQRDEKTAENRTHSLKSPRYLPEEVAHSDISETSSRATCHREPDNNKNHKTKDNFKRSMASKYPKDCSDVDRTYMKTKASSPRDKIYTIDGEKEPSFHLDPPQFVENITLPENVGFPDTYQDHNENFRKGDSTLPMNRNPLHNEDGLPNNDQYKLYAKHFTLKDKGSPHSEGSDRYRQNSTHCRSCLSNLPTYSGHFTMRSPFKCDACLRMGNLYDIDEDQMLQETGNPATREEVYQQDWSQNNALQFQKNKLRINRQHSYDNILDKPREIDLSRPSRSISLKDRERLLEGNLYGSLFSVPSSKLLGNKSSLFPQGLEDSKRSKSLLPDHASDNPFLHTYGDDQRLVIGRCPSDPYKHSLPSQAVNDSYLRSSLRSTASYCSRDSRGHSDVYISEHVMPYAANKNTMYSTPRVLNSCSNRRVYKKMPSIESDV
T2 sequence (Q00960+Q00959 fused with the stated changes, other chains not shown): as above

Structure (SMILES) | expected reduction of peak current [1] [%] | reduction of peak current [2] [%] | block of the current amplitude [3] [%] | reduction of peak current [4] [%] | expected reduction of triheteromeric peak current [5] [%] | glutamate association rate k +A (GluN1/GluN2A receptors; [6]) [M⁻¹ s⁻¹] | glutamate dissociation rate k −A (GluN1/GluN2A receptors; [6]) [s⁻¹] | glutamate dissociation rate k −A (GluN1/GluN2A receptors; [7]) [s⁻¹] | microscopic glutamate association rate k +A (GluN1/GluN2A receptors; [7]) [M⁻¹ s⁻¹]
CC(C(O)c1ccc(O)cc1)N1CCC(Cc2ccccc2)CC1 (stereo not drawn) [ifenprodil] | ~90 | 43 ± 6.1 | 38 | 58 ± 5.5 | ~30 | – | – | – | –
N[C@@H](CCC(=O)O)C(=O)O [glutamate] | – | – | – | – | – | 1.3e+07 | 483 | 65 | 6.7e+06
